{"source": "patent US10828276B2", "about": "“Combination therapeutics and methods for the treatment of neurodegenerative and other diseases” (APHIOS CORPORATION, priority 2012, dated 2020)", "key": {"[1]": {"system": "Alzheimer's disease mediated memory loss", "assay": "Water maze studies in sweAPP/PS1 mice", "format": "in vivo, Mouse strain B6C3-Tg", "description": "Mouse strain B6C3-Tg carrying mutant Swedish Amyloid precursor protein (sweAPP) and PS1 (presenilin-1) genes associated with early onset Alzheimer's disease were subjected to water maze tests at 5-6 months of age."}, "[2]": {"system": "SH-SY5Y neuroblastoma cells", "assay": "sAPP-a release from SH-SY5Y cells (6E10 western blot, densitometry)", "format": "cell-based", "description": "Cells were treated with RA, Bryostatin-1 (10^−9M)+RA, Bryostatin-1 (10^−10M), RA+Bryostatin-1 (10^−10M) for 3 h."}, "ADAM10": {"system": "ADAM10", "assay": "ADAM10 expression in SH-SY5Y cells", "format": "cell-based", "conditions": "single agents", "description": "Therefore, Bryostatin-1 may increase […]-secretase processing through 2 independent mechanisms: (i) activation of PKCs which stimulate[…]secretase; and (ii) increased expression of […]-secretase."}}, "data": [{"smiles": "CCC/C=C/C=C/C(=O)O[C@H]1/C(=C/C(=O)OC)C[C@H]2C[C@H]([C@@H](C)O)OC(=O)C[C@H](O)C[C@@H]3C[C@H](OC(C)=O)C(C)(C)[C@](O)(C[C@@H]4C/C(=C/C(=O)OC)C[C@H](/C=C/C(C)(C)[C@]1(O)O2)O4)O3", "note": "[Bryostatin-1]", "values": [{"measurement": "protection against Alzheimer's disease mediated memory loss (water maze)", "setting": "[1]; 5 micrograms/mouse on alternative days orally in an oil formulation, mice 5-6 months of age, vs control animals", "result": "significant protection"}, {"measurement": "memory and cognition in AD model", "setting": "[1]; our AD model", "result": "enhance memory and cognition"}, {"measurement": "sAPP formation", "setting": "[2]; 10^−9M Bryostatin-1 alone", "result": "increased"}, {"measurement": "activity of alpha-secretase", "setting": "[2]; SH-SY5Y neuroblastoma cells", "result": "potently stimulate"}, {"measurement": "sAPPa recovered from culture medium compared to control", "setting": "[2]; single agents, RA 2 μM, Bryostatin-1 10^−10M, 3 h, p<0.05, p<0.01", "result": "significantly increased"}, {"measurement": "expression of ADAM10", "setting": "ADAM10", "result": "significantly increase"}]}]}
